According to patent US4912133A, “BU-3862T antitumor antibiotic” (priority 1988, dated 1990):
Values after ≈ are worked out from the molar mass of the structure shown. Like-named read-outs stand apart in the source and are kept apart here.

Experiments:
[1] = tested on: L1210 leukemia
Protocol: (§2) In vivo antitumor activities of BU-3862T and the diacetyl and dihydro derivatives were determined in tumor-bearing BDF1 or CDF1 mice. Male BDF1 mice were intraperitoneally inoculated with 0.5 ml of 10% melanotic melanoma B16 brei and female CDF1 mice were also intraperitoneally inoculated with 0.4 ml of diluted ascitic fluid containing 10^5 lymphoid leukemia L1210 cells or 10^6 lymphocytic leukemia P388 cells.

[2] = tested on: P388 (murine leukemia) cells; experiment: in vitro cytotoxicity against P388 (viable cell count, 72 hours); format: cell-based; conditions: Mus musculus; P388, 72 hours
Protocol: (§1) BU-3862T and diacetyl-, dihydro- and tetrahydro-BU-3862T were tested for in vitro cytotoxicity against several murine and human tumor cell lines and/or for in vivo antitumor activity in mice. […] B16-F10 (murine melanoma), P388 (murine leukemia), L1210 (murine leukemia) and Moser (human colorectal carcinoma) cells were grown to the logarithmic phase in enriched Eagle minimum essential medium (MEM) supplemented with fetal calf serum (FCS, 10%) and kanamycin (60 mcg/ml), and HCT-116 (human colon carcinoma) cells in Maccoy's 5A medium supplemented with FCS (10%), penicillin (100 u/ml) and streptomycin (100 mcg/ml), harvested and inoculated into wells of the 96- or 24-well tissue culture plate with test materials at the concentrations of 1.5×10^5, 1.2×10^4,1.2×10^4, 2.5×10^5 and 3.0×10^5 cells/ml, respectively. They were incubated at 37° C. in humidified atmosphere of 5% CO2 and 95% air for 72 hours. The cytotoxic activities against B16-F10, Moser and HCT-116 cells were colorimetrically determined at 540 nm after staining viable cells with 0.006% neutral red solution. On the other hand, the cytotoxic activities against P388 and L1210 cells were determined by counting the number of viable cells.

[3] = tested on: B16 melanoma; conditions: for T/C: Table 6, QD × 9; for inhibitory activity against experimental animal tumor systems: e.g. B16 melanoma in mice; for antitumor efficacy against B16 melanoma, in words: ip; for minimum effective dose relative to the parent compound: versus BU-3862T
Protocol: as §2

[4] = tested on: RNA synthesis in B16-F10 melanoma cells; experiment: inhibition of RNA synthesis in cultured B16-F10 melanoma cells; format: cell-based, murine; conditions: Mus musculus, 14C-uridine incorporation, 4 hours + 60 min
[5] = tested on: Moser (human colorectal carcinoma) cells; experiment: in vitro cytotoxicity against Moser (neutral red staining, 72 hours); format: cell-based
Protocol: as §1

[6] = tested on: L1210 (murine leukemia) cells; experiment: in vitro cytotoxicity against L1210 (viable cell count, 72 hours); format: cell-based; conditions: Mus musculus; L1210, 72 hours
Protocol: as §1

[7] = solubility; format: physicochemical
[8] = tested on: protein synthesis in B16-F10 melanoma cells; experiment: inhibition of protein synthesis in cultured B16-F10 melanoma cells; format: cell-based, murine
[9] = tested on: HCT-116 (human colon carcinoma) cells; experiment: in vitro cytotoxicity against HCT-116 (neutral red staining, 72 hours); format: cell-based
Protocol: as §1

[10] = tested on: B16-F10 (murine melanoma) cells; experiment: in vitro cytotoxicity against B16-F10 (neutral red staining, 72 hours); format: cell-based; conditions: Mus musculus
Protocol: as §1

[11] = tested on: P388 leukemia; conditions: at the doses tested
Protocol: as §2

[12] = tested on: DNA synthesis in B16-F10 melanoma cells; experiment: inhibition of DNA synthesis in cultured B16-F10 melanoma cells; format: cell-based, murine
[13] = tested on: murine and human tumor cell lines
Protocol: as §1

[14] = biological activity of BU-3862T derivatives
[15] = Moser, 72 hours, read-out: IC50
[16] = HCT-116, 72 hours, read-out: IC50
[17] = B16-F10, 72 hours, read-out: IC50

C=C(C)CC(NC(=O)[C@H](CO)NC(=O)CCCCC(C)C)C(=O)C1(CO)CO1 (some centres unmarked) [BU-3862T]
T/C ([1]; 0.25 mg/kg/day ip, Q3D × 3): 119% | T/C ([1]; 1.0 mg/kg/day ip, Q3D × 3): 125% | T/C ([1]; 2.0 mg/kg/day ip, Q3D × 3): 144% | T/C ([1]; 4.0 mg/kg/day ip, Q3D × 3): Tox. | maximum T/C value ([1]; L1210 leukemia, ip): 145% | antitumor activity against L1210 leukemia, in words ([1]; ip): moderate antitumor activity | IC50 [2]: 0.031 µg/mL (≈ 0.0778 µM) | potency (minimum effective dose) relative to mitomycin C ([3]; Q4D × 3, ip): the same as that of mitomycin C | chemotherapeutic index (ratio of optimal dose to minimum effective dose), intermittent versus consecutive dosing ([3]; Q4D × 3 versus QD × 9): broader therapeutic range | maximum T/C value, intermittent versus consecutive dosing ([3]; Q4D × 3 versus QD × 9): better antitumor activity | T/C ([3]; 0.13 mg/kg/day ip): 123% | T/C ([3]; 0.25 mg/kg/day ip): 133% | T/C ([3]; 0.5 mg/kg/day ip): 133% | T/C ([3]; 0.63 mg/kg/day (so in the source) ip): 113% | T/C ([3]; 1.0 mg/kg/day ip): 97% | T/C ([3]; 2.0 mg/kg/day ip): Tox. | inhibitory activity against experimental animal tumor systems [3]: exhibit inhibitory activity | antitumor efficacy against B16 melanoma, in words [3]: excellent therapeutic efficacy against B16 melanoma | IC50 [4]: 11 µg/mL | IC50 [5, 15]: 0.016 µg/mL (≈ 0.0402 µM) | IC50 [6]: 0.01 µg/mL (≈ 0.0251 µM) | solubility ([7]; in benzene and other organic solvents): practically insoluble | solubility ([7]; in dimethyl sulfoxide, dimethylformamide, methanol, ethanol, ethyl acetate and chloroform): readily soluble | solubility ([7]; in water): practically insoluble | IC50 ([8]; Mus musculus, B16-F10, 3H-leucine incorporation, 4 hours + 60 min): 0.06 µg/mL | potency on protein synthesis relative to that on RNA synthesis in terms of IC50 value ([8]; protein versus RNA synthesis): over 100 times | IC50 [9, 16]: 0.0097 µg/mL (≈ 0.0243 µM) | IC50 [10, 17]: 0.0017 µg/mL (≈ 0.00427 µM) | prolongation of lifespan in P388 leukemia-bearing mice [11]: no significant prolongation of lifespan | potency on DNA synthesis relative to that on RNA synthesis in terms of IC50 value ([12]; DNA versus RNA synthesis): over 100 times | IC50 ([12]; Mus musculus, B16-F10, 3H-thymidine incorporation, 3.5 hours + 30 min): 0.1 µg/mL

C=C(C)CC(NC(=O)[C@H](COC(C)=O)NC(=O)CCCCC(C)C)C(=O)C1(COC(C)=O)CO1 (some centres unmarked) [Diacetyl-BU-3862T]
minimum effective dose relative to the parent compound ([3]; Q4D × 3, ip): approximately ten times less active than the parent compound | inhibitory activity against experimental animal tumor systems [3]: exhibit inhibitory activity | antitumor efficacy against B16 melanoma, in words [3]: significant anti-B16 melanoma activity | IC50 [5, 15]: 0.044 µg/mL (≈ 0.0912 µM) | cytotoxic potency relative to BU-3862T [13]: approximately half those of BU-3862T | biological activity, in words [14]: retained the biological activity | IC50 [9, 16]: 0.017 µg/mL (≈ 0.0352 µM) | IC50 [10, 17]: 0.003 µg/mL (≈ 0.00622 µM)

CC(C)CCCCC(=O)N[C@@H](CO)C(=O)NC(CC(C)C)C(=O)C1(CO)CO1 (some centres unmarked) [Dihydro-BU-3862T]
minimum effective dose relative to the parent compound ([3]; Q4D × 3, ip): approximately ten times less active than the parent compound | inhibitory activity against experimental animal tumor systems [3]: exhibit inhibitory activity | antitumor efficacy against B16 melanoma, in words [3]: significant anti-B16 melanoma activity | IC50 [5, 15]: 0.038 µg/mL (≈ 0.0949 µM) | cytotoxic potency relative to BU-3862T [13]: approximately half those of BU-3862T | biological activity, in words [14]: retained the biological activity | IC50 [9, 16]: 0.013 µg/mL (≈ 0.0325 µM) | IC50 [10, 17]: 0.0032 µg/mL (≈ 0.00799 µM)

CO[C@@]12[C@H](COC(N)=O)C3=C(C(=O)C(C)=C(N)C3=O)N1C[C@@H]1N[C@@H]12 [Mitomycin C, reference compound]
T/C ([1]; 0.25 mg/kg/day ip, QD × 3): 125% | T/C ([1]; 0.5 mg/kg/day ip, QD × 3): 131% | T/C ([1]; 1.0 mg/kg/day ip, QD × 3): 138% | T/C ([1]; 2.0 mg/kg/day ip, QD × 3): 163% | IC50 ([5]; 72 h): 1.2 µg/mL (≈ 3.59 µM) | IC50 ([9]; HCT-116, 72 h): 0.8 µg/mL (≈ 2.39 µM) | IC50 ([10]; B16-F10, 72 h): 0.5 µg/mL (≈ 1.5 µM)

CC(C)CCCCC(=O)N[C@@H](CO)C(=O)NC(CC(C)C)C(=O)C(CO)CO (some centres unmarked) [Tetrahydro-BU-3862T]
IC50 [5, 15]: > 1 µg/mL | cytotoxic activity compared with BU-3862T, diacetyl and dihydro derivatives [13]: significantly less active than the above compounds | biological activity, in words [14]: devoid of the activity | IC50 [9, 16]: > 1 µg/mL | IC50 [10, 17]: 0.53 µg/mL (≈ 1.32 µM)
